Experiment: Simulated digestion model, mineral bioaccessibility
Format: in vitro ADME
Settings: in the presence of lutein
Description: In vitro simulated gastrointestinal digestion was used for assessing mineral bioaccessibility in presence of the tested compounds.
Mineral bioaccessibility buffer (MBB) was prepared (NaCl; 6.6 mg/mL, MgSO4; 0.12 mg/mL, Glucose; 0.9 mg/mL, L-Ascorbic acid; 0.09 mg/mL, HEPES; 8.6 mg/mL at pH 6.5) with Calcium, Iron and Zinc (tricalcium phosphate; 1314.6 μg/mL, Calcium D-pantothenate; 28.5 μg/mL, Calcium Carbonate; 13.0 μg/mL, Iron Sulphate heptahydrate; 3.8 μg/mL, Iron Chloride; 12.5 μg/mL, Zinc Sulphate heptahydrate; 17.4 μg/mL, Zinc Chloride; 2.2 μg/mL) to achieve a total mineral content (Calcium; 520 μg/mL, Iron; 5.0 μg/mL, Zinc; 5.0 μg/mL), as well as soluble mineral content similar to that of infant formula. […]
The transit of CCP, Lutein, 2-PA and non-digestible Gos/Fos through the gastro-intestinal tract was mimicked using a three-phase dialysis model that was adapted from literature [Venema, 2020]. […] Calcium, Iron and Zinc in the dialysate were analyzed with ICP-OES spectrometry.
The average (n=3) total amount of Calcium, Iron and Zinc measured in the dialysate was considered bioaccessible. […]

**Q.** Which mineral bioaccessibility does the source give for `CC1=C[C@H](O)CC(C)(C)[C@H]1/C=C/C(C)=C/C=C/C(C)=C/C=C/C=C(C)/C=C/C=C(C)/C=C/C1=C(C)C[C@@H](O)CC1(C)C` [lutein] here?
**A.** The mineral bioaccessibility was “significantly increased”.

Reference: patent US20250170073A1, “SYNERGISTIC COMPOSITIONS FOR IMPROVING MINERAL BIOACCESSIBILITY” (priority 2022, published 2025)
